Results on six compounds are retold here after publication PMC10222858 (Marine Drugs, 2023).

The target of one assay is rα6/α3β4 nAChRs (Rattus norvegicus, UniProt P04757+P12392+P43143). Nature of the assay: cell-based. Format: cell-based.
A further assay deals with rα3β4 nAChRs (Rattus norvegicus, UniProt P04757+P12392). Kind of assay: cell-based. In kind it is cell-based.

pIC50: −log10 of the molar value. Where a SMILES comes first, the peptide text is derived from it.

Chain of rα6/α3β4 nAChRs (P04757 whole entry, looked up): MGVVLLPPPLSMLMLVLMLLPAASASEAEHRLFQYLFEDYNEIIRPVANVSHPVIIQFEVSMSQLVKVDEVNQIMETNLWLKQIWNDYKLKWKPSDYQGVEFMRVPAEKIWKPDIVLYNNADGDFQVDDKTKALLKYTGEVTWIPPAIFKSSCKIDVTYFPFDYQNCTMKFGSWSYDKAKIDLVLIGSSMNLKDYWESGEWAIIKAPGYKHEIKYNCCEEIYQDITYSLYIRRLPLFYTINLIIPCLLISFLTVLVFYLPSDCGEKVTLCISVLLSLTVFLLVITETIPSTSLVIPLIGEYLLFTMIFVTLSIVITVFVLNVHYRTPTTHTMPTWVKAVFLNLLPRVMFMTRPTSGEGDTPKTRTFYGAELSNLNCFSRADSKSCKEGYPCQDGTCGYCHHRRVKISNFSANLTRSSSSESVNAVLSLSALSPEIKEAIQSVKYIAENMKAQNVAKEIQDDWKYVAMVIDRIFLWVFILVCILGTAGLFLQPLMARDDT
Chain of rα6/α3β4 nAChRs (P12392 whole entry, looked up): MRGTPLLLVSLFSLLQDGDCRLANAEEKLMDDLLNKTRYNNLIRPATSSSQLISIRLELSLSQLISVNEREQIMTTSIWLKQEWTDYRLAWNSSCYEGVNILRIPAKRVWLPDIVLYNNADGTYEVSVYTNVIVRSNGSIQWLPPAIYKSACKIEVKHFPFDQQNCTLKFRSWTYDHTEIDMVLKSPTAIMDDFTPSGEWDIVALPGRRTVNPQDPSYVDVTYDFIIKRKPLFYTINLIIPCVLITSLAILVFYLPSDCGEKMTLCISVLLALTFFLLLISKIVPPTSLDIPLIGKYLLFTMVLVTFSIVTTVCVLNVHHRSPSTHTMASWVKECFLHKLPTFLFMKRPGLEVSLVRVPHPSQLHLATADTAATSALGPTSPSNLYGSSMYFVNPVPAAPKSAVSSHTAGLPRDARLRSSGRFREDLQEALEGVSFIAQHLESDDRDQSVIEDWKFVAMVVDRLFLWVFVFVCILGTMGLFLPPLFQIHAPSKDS
Chain of rα6/α3β4 nAChRs (P43143 whole entry, looked up): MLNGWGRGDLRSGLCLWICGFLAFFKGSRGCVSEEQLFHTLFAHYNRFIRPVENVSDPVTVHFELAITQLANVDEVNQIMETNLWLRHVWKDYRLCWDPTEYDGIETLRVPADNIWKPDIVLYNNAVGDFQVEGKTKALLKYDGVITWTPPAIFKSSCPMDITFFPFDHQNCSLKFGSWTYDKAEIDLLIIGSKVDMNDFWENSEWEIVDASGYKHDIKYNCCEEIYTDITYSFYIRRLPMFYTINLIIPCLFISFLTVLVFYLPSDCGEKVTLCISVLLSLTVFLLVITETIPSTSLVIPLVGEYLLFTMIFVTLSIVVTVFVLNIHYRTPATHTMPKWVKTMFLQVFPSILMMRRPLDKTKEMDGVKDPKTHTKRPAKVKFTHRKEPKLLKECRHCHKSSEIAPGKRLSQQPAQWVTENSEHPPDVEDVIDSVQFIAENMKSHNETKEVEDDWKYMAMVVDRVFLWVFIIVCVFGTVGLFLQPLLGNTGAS
Chain of rα3β4 nAChRs (P04757 26-499 limits assumed): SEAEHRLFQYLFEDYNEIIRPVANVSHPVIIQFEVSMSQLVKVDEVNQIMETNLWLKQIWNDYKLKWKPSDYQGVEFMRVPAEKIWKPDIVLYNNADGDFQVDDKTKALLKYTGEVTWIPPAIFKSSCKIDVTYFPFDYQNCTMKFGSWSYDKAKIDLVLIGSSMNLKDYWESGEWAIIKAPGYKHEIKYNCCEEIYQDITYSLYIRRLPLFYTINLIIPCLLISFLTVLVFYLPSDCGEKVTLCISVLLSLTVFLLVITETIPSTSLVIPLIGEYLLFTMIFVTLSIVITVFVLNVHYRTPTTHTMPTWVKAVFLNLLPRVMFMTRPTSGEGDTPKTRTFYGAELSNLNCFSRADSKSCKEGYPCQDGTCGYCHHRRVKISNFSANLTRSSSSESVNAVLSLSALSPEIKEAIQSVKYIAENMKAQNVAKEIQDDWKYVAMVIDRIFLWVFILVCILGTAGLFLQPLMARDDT
Chain of rα3β4 nAChRs (P12392 21-495 limits assumed): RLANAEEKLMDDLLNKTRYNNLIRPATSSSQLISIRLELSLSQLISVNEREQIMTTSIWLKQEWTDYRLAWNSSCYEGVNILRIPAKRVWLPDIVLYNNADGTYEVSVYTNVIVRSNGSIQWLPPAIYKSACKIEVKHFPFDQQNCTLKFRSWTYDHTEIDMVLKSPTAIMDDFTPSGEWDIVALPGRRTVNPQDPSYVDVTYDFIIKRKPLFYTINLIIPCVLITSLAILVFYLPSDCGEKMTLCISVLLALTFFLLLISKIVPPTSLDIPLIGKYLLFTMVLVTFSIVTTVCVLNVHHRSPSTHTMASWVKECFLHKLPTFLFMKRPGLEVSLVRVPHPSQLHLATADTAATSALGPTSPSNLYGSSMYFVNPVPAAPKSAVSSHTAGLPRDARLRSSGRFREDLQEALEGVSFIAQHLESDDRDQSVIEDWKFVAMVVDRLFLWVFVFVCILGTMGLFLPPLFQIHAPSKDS

Broadly, the pIC50 is −log10 of the IC50, conventionally taken in molar units. Turning to `CC[C@H](C)[C@@H]1NC(=O)[C@@H]2CCCN2C(=O)[C@H](CO)NC(=O)[C@H](CCSC)NC(=O)[C@H](C)NC(=O)[C@H](CO)NC(=O)[C@H](C)NC(=O)[C@@H]2CSSC[C@H](NC(=O)CN)C(=O)N[C@@H](CSSC[C@@H](C(N)=O)NC1=O)C(=O)N[C@@H](CO)C(=O)N[C@@H](Cc1c[nH]cn1)C(=O)N1CCC[C@H]1C(=O)N[C@@H](C(C)C)C(=O)N2` [[+9A]TxID] (HELM PEPTIDE1{G.C.C.S.H.P.V.C.A.S.A.M.S.P.I.C.[am]}$PEPTIDE1,PEPTIDE1,2:R3-8:R3|PEPTIDE1,PEPTIDE1,3:R3-16:R3$$$V2.0), on rα6/α3β4 nAChRs, the pIC50 was < 5.00 and the “inhibition of rα6/α3β4 nAChRs in words” value is recorded as “no obvious inhibition”. Moreover, at rα3β4 nAChRs, the pIC50 was < 5.00 and the “blocking percentage of rα3β4 nAChRs” value is “less than fifty percent”.

Take `CC[C@H](C)[C@@H]1NC(=O)[C@@H]2CCCN2C(=O)[C@H](CO)NC(=O)[C@H](CCSC)NC(=O)[C@H](C)NC(=O)[C@H](C)NC(=O)[C@H](CO)NC(=O)[C@@H]2CSSC[C@H](NC(=O)CN)C(=O)N[C@@H](CSSC[C@@H](C(N)=O)NC1=O)C(=O)N[C@@H](CO)C(=O)N[C@@H](Cc1c[nH]cn1)C(=O)N1CCC[C@H]1C(=O)N[C@@H](C(C)C)C(=O)N2` [[+10A]TxID] (HELM PEPTIDE1{G.C.C.S.H.P.V.C.S.A.A.M.S.P.I.C.[am]}$PEPTIDE1,PEPTIDE1,2:R3-8:R3|PEPTIDE1,PEPTIDE1,3:R3-16:R3$$$V2.0): the pIC50 is 5.95 on rα6/α3β4 nAChRs and < 5.00 at rα3β4 nAChRs.

Turning to `CC[C@H](C)[C@@H]1NC(=O)[C@@H]2CCCN2C(=O)[C@H](CO)NC(=O)[C@H](C)NC(=O)[C@H](CCSC)NC(=O)[C@H](C)NC(=O)[C@H](CO)NC(=O)[C@@H]2CSSC[C@H](NC(=O)CN)C(=O)N[C@@H](CSSC[C@@H](C(N)=O)NC1=O)C(=O)N[C@@H](CO)C(=O)N[C@@H](Cc1c[nH]cn1)C(=O)N1CCC[C@H]1C(=O)N[C@@H](C(C)C)C(=O)N2` [[+12A]TxID] (HELM PEPTIDE1{G.C.C.S.H.P.V.C.S.A.M.A.S.P.I.C.[am]}$PEPTIDE1,PEPTIDE1,2:R3-8:R3|PEPTIDE1,PEPTIDE1,3:R3-16:R3$$$V2.0), the figures for the pIC50 against rα6/α3β4 nAChRs and against rα3β4 nAChRs were 7.47 and 7.31, respectively.

For `CC[C@H](C)[C@@H]1NC(=O)[C@@H]2CCCN2C(=O)[C@H](C)NC(=O)[C@H](CO)NC(=O)[C@H](CCSC)NC(=O)[C@H](C)NC(=O)[C@H](CO)NC(=O)[C@@H]2CSSC[C@H](NC(=O)CN)C(=O)N[C@@H](CSSC[C@@H](C(N)=O)NC1=O)C(=O)N[C@@H](CO)C(=O)N[C@@H](Cc1c[nH]cn1)C(=O)N1CCC[C@H]1C(=O)N[C@@H](C(C)C)C(=O)N2` [[+13A]TxID] (HELM PEPTIDE1{G.C.C.S.H.P.V.C.S.A.M.S.A.P.I.C.[am]}$PEPTIDE1,PEPTIDE1,2:R3-8:R3|PEPTIDE1,PEPTIDE1,3:R3-16:R3$$$V2.0), the pIC50 at rα6/α3β4 nAChRs is 7.19; at rα3β4 nAChRs it was 8.00.

Regarding `CC[C@H](C)[C@@H]1NC(=O)[C@H](C)NC(=O)[C@@H]2CCCN2C(=O)[C@H](CO)NC(=O)[C@H](CCSC)NC(=O)[C@H](C)NC(=O)[C@H](CO)NC(=O)[C@@H]2CSSC[C@H](NC(=O)CN)C(=O)N[C@@H](CSSC[C@@H](C(N)=O)NC1=O)C(=O)N[C@@H](CO)C(=O)N[C@@H](Cc1c[nH]cn1)C(=O)N1CCC[C@H]1C(=O)N[C@@H](C(C)C)C(=O)N2` [[+14A]TxID] (HELM PEPTIDE1{G.C.C.S.H.P.V.C.S.A.M.S.P.A.I.C.[am]}$PEPTIDE1,PEPTIDE1,2:R3-8:R3|PEPTIDE1,PEPTIDE1,3:R3-16:R3$$$V2.0), the pIC50 at rα6/α3β4 nAChRs was 6.43; at rα3β4 nAChRs, 7.43.

As for `CC[C@H](C)[C@@H]1NC(=O)[C@@H]2CCCN2C(=O)[C@H](CO)NC(=O)[C@H](CCSC)NC(=O)[C@H](C)NC(=O)[C@H](CO)NC(=O)[C@@H]2CSSC[C@H](NC(=O)CN)C(=O)N[C@@H](CSSC[C@@H](C(N)=O)NC(=O)[C@H](C)NC1=O)C(=O)N[C@@H](CO)C(=O)N[C@@H](Cc1c[nH]cn1)C(=O)N1CCC[C@H]1C(=O)N[C@@H](C(C)C)C(=O)N2` [[+15A]TxID] (HELM PEPTIDE1{G.C.C.S.H.P.V.C.S.A.M.S.P.I.A.C.[am]}$PEPTIDE1,PEPTIDE1,2:R3-8:R3|PEPTIDE1,PEPTIDE1,3:R3-16:R3$$$V2.0), the pIC50 against rα6/α3β4 nAChRs was 7.43; at rα3β4 nAChRs, 8.52.
